Key:
Solubility = type: physicochemical
[1] = target: RPA (replication protein A) (Homo sapiens, UniProt P27694); assay: RPA-based EMSA; type: binding; details: at 10 μM
full length human XPA = full length human XPA (Homo sapiens, UniProt P23025); assay: EMSA, binding of full length human XPA to a cisplatin-modified DNA
Sequence of full length human XPA (P23025 whole entry): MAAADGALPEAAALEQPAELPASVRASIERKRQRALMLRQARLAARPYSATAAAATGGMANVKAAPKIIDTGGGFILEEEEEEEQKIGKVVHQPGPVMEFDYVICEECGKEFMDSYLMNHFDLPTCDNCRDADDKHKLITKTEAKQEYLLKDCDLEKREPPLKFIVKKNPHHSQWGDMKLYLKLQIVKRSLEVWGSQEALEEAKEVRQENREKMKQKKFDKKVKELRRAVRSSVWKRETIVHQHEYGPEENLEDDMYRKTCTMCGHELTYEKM

Sequence of RPA (replication protein A) (P27694 whole entry): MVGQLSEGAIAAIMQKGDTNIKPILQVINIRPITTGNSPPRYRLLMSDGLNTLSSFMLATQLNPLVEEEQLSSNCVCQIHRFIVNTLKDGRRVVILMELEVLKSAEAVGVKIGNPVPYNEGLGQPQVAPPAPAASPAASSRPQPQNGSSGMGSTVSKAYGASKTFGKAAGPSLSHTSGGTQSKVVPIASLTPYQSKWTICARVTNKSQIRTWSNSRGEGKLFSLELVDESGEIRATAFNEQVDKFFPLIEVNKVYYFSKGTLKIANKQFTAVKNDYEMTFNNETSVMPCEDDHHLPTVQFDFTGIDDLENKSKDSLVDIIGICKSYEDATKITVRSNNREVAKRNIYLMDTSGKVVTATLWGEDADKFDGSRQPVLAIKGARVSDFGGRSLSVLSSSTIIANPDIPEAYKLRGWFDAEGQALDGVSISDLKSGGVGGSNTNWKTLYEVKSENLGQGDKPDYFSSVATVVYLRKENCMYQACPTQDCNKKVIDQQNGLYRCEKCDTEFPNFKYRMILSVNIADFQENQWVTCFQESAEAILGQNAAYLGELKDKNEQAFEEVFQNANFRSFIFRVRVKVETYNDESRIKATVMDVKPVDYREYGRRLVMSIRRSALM

solubility (in words) (Solubility) | RPA inhibition [1] | SMILES | XPA inhibitory activity (in words) (full length human XPA)
dramatically increased solubility | – | CC1=NN(c2cccc(C(=O)O)c2)C(=O)/C1=C\c1ccc(-c2ccc(Cl)c(C(=O)NCc3ccc(F)cc3)c2)o1 [Compound 34a, (Z)-3-(4-((5-(4-Chloro-3-((4-fluorobenzyl)carbamoyl)phenyl)furan-2-yl)methylene)-3-methyl-5-oxo-4,5-dihydro-1H-pyrazol-1-yl)-benzoic Acid] | –
poor solubility | no RPA inhibition | CC1=NN(c2ccc(Cl)c(C(=O)O)c2)C(=O)/C1=C\c1ccc(-c2ccc(Cl)c(C(=O)OCc3ccccc3)c2)o1 [Compound 22] | –
– | – | CC1=NN(c2cccc(C(=O)O)c2)C(=O)/C1=C\c1ccc(-c2ccc(C(=O)NCc3ccc(F)cc3)cc2)o1 [Compound 39a, (Z)-3-(4-((5-(4-((4-Fluorobenzyl)carbamoyl)phenyl)furan-2-yl)-methylene)-3-methyl-5-oxo-4,5-dihydro-1H-pyrazol-1-yl)benzoic Acid] | no XPA inhibitory activity
poor solubility | no RPA inhibition | CC1=NN(c2ccc(Cl)c(C(=O)O)c2)C(=O)/C1=C\c1ccc(-c2ccc(Cl)c(C(=O)OCc3ccccc3Cl)c2)o1 [Compound 24] | –
– | – | CC1=NN(c2cccc(C(=O)NCC3CC3)c2)C(=O)/C1=C\c1ccc(-c2ccc(Cl)c(C(=O)NCC3CC3)c2)o1 [Compound 34e, (Z)-2-Chloro-N-(cyclopropylmethyl)-5-(5-((1-(3-((cyclopropylmethyl)carbamoyl)phenyl)-3-methyl-5-oxo-1H-pyrazol-4(5H)-ylidene)methyl)furan-2-yl)-benzamide] | dramatically decreased or almost no XPA inhibitory activity
– | – | CCOC(=O)c1cccc(N2N=C(C)/C(=C/c3ccc(-c4ccc(Cl)c(C(=O)NCc5ccc(F)cc5)c4)o3)C2=O)c1 [Compound 33a, (Z)-Ethyl 3-(4-((5-(4-Chloro-3-((4-fluorobenzyl)carbamoyl)phenyl)furan-2-yl)-methylene)-3-methyl-5-oxo-4,5-dihydro-1H-pyrazol-1-yl)benzoate] | dramatically decreased or almost no XPA inhibitory activity
– | no RPA inhibition | CC1=NN(c2ccc(C(=O)O)cc2)C(=O)/C1=C\c1ccc(-c2ccc(Cl)c(C(=O)NCc3ccc(F)cc3)c2)o1 [Compound 34i, (Z)-4-(4-((5-(4-Chloro-3-((4-fluorobenzyl)carbamoyl)phenyl)-furan-2-yl)methylene)-3-methyl-5-oxo-4,5-dihydro-1H-pyrazol-1-yl)benzoic Acid] | –
– | – | CC1=NN(c2cccc(C(=O)O)c2)C(=O)/C1=C\c1ccc(-c2ccc(C(=O)NCC3CC3)cc2)o1 [Compound 39b, (Z)-3-(4-((5-(4-((Cyclopropylmethyl)carbamoyl)phenyl)furan-2-yl)methylene)-3-methyl-5-oxo-4,5-dihydro-1H-pyrazol-1-yl)benzoic Acid] | no XPA inhibitory activity
– | no RPA inhibition | CC1=NN(c2ccc(C(=O)O)cc2)C(=O)/C1=C\c1ccc(-c2ccc(Cl)c(C(=O)NCC3CC3)c2)o1 [Compound 34k, (Z)-4-(4-((5-(4-Chloro-3-((cyclopropylmethyl)carbamoyl)phenyl)-furan-2-yl)methylene)-3-methyl-5-oxo-4,5-dihydro-1H-pyrazol-1-yl)benzoic Acid] | –
